Usually Ki stands for a dissociation constant, usually derived from enzyme kinetics or from competition with a known ligand. The AC50 is the concentration giving half of the maximal activity seen. Usually EC50 stands for the concentration needed to bring the measured effect to its halfway point.

For experiment [1], the target named is Dual specificity tyrosine-phosphorylation-regulated kinase 1B (Homo sapiens, UniProt Q9Y463). The experiment in a line: Navigating the Kinome. Panel member name: DYRK1B. In kind it is functional.
Dual specificity tyrosine-phosphorylation-regulated kinase 1B, sequence (Q9Y463 whole entry): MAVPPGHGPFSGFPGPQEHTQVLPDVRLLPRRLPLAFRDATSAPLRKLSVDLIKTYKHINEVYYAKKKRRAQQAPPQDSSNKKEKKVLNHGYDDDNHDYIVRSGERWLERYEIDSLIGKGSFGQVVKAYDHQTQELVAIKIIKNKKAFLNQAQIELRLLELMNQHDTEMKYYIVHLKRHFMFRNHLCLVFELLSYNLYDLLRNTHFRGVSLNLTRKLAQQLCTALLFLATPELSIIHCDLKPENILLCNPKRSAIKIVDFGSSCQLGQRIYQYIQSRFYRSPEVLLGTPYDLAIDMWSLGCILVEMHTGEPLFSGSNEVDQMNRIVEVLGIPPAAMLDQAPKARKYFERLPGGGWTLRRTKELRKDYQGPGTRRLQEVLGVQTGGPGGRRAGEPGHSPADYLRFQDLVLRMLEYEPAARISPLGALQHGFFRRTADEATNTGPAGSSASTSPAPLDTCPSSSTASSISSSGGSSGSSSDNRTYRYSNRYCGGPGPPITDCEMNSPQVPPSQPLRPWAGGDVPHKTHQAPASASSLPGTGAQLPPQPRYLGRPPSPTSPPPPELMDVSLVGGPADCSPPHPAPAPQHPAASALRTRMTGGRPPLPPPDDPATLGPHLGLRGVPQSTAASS
The target in experiment [2] is Dual specificity tyrosine-phosphorylation-regulated kinase 1A (Homo sapiens, UniProt Q13627). In kind it is functional.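 Further: measured against DYRK1A as one member of a broad kinome profiling panel.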
For experiment [3], the target named is Dual specificity protein kinase CLK4 (Homo sapiens, UniProt Q9HAZ1). In kind it is functional.
Dual specificity protein kinase CLK4, sequence (Q9HAZ1 whole entry): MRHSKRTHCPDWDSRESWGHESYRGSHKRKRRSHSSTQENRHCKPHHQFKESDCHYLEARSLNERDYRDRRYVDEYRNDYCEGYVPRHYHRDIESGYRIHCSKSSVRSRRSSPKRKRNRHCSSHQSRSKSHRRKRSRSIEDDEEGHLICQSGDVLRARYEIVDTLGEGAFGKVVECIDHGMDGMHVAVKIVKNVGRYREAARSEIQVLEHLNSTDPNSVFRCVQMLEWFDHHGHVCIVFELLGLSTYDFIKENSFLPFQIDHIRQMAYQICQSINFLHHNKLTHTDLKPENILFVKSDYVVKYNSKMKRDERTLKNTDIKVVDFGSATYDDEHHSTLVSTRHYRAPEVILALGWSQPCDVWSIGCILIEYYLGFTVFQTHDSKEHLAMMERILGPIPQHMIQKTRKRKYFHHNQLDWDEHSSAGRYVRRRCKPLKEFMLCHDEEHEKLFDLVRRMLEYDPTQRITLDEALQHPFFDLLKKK
Experiment [4] has as its target Mitogen-activated protein kinase 8 (Homo sapiens, UniProt P45983). In kind it is functional.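 Further: value comes from one member of a kinome-wide kinase profiling panel.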
Experiment [5] can be described thus: control 3'UTR Renilla luciferase suppression, dose response, counter-screen for Shn3 inhibitor project, cell-based, Clone20-Shn3RL, cherry-picked (AID 624133). In kind it is functional.
The nature of experiment [6]: HepG2 cell cytotoxicity, dose response, cytotoxicity control for Shn3 inhibitor project, CellTiter-Glo, cherry-picked (AID 624134). In kind it is functional, cell-based.
The target of experiment [7] is Melanocortin receptor 4 (Homo sapiens, UniProt P32245). The experiment in a line: MC4R antagonist potency on cAMP, dose response, cell-based, TR-FRET, biased antagonists (AID 602298).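 Further: antagonist potency against agonist-stimulated cAMP production.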 In kind it is functional.
Melanocortin receptor 4, sequence (P32245 whole entry): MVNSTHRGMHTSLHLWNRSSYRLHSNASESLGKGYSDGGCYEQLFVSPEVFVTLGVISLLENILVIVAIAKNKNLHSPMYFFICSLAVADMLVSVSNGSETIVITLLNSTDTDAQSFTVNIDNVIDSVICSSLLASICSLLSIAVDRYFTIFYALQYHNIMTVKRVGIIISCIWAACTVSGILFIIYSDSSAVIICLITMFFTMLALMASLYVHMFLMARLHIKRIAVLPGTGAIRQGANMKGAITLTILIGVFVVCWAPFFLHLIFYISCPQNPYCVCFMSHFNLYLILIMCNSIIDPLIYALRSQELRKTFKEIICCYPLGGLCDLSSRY
A short description of experiment [8]: growth suppression of PTEN-null colon cells, dose response, cell-based, HCT116 PTEN knockout (AID 1047).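 Further: HCT116 colon tumor cells with PTEN knocked out; cells exposed to compound for 60 hours before readout; potency for loss of cell viability measured by luminescence.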 In kind it is functional.
Experiment [9] can be described thus: Shn3 3'UTR reporter inhibitors, dose response, cell-based, Clone20 osteoblasts, firefly luciferase, cherry-picked (AID 624132).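 Further: firefly luciferase luminescence from reporter carrying the Shn3 3'UTR in osteoblasts.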 In kind it is functional.
Experiment [10] is described as follows: HepG2 cell cytotoxicity, dose response, cytotoxicity control, plate reader, cherry-pick, antagonist series (AID 743416). In kind it is functional, cell-based.
The nature of experiment [11]: MC4R antagonists, dose response, counter-screen for LGR2 antagonist project, cell-based, plate reader, cherry pick (AID 743444).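 Further: transfected HEK 293 cells stimulated with alpha-MSH peptide; potency of inhibitors of the alpha-MSH evoked signal.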 In kind it is functional.
Experiment [12] in a line: cytotoxicity in HEK-293T cells, dose response, cytotoxicity control for BCR NF-kB inhibitor project, luminescence, B-cell screen hits (AID 489021).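 Further: HEK-293T cells carrying an NF-kB luciferase reporter; cells exposed to compound for about 14 hours before viability readout.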 In kind it is functional, cell-based.
The nature of experiment [13]: growth suppression of beta-catenin-knockout colon cells, dose response, cell-based, HCT116, human colon tumor (AID 1045).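 Further: HCT116 colon tumor cells with beta catenin knocked out; cells exposed to compound for 60 hours.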 In kind it is functional.
Experiment [14] is described as follows: nonselective inhibitors of cellular cAMP signaling, dose response, counter-screen for MC4R biased antagonist project, cell-based, TR-FRET cAMP detection (AID 602305).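 Further: U2OS cells stimulated with forskolin near its EC80 as the cAMP inducer; potency is for inhibition of forskolin-stimulated cAMP signaling.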 In kind it is functional. A general note: Counterscreens check selectivity or assay interference.
Experiment [15] in a line: A549 cell cytotoxicity, dose response, cytotoxicity control, plate reader, cherry-pick, antagonist series (AID 743412). In kind it is functional, cell-based.
Experiment [16] can be described thus: LGR2 antagonists, dose response, cell-based, HEK293, CRE-luciferase reporter, cherry pick, set 2 (AID 743343).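 Further: transfected cells were stimulated with diluted bursicon conditioned medium after compound addition.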 In kind it is functional.
Experiment [17] is described as follows: microbe, parasite or virus in culture. In kind it is functional. Conditions: Mycobacterium tuberculosis.
A short description of experiment [18]: HEK293 cell cytotoxicity, dose response, cytotoxicity control, plate reader, cherry-picked samples (AID 743446). In kind it is functional, cell-based.
Experiment [19] has as its target T1, Neuropeptides B/W receptor type 1 (Homo sapiens, UniProt P48145).
T1 sequence (P48145 whole entry): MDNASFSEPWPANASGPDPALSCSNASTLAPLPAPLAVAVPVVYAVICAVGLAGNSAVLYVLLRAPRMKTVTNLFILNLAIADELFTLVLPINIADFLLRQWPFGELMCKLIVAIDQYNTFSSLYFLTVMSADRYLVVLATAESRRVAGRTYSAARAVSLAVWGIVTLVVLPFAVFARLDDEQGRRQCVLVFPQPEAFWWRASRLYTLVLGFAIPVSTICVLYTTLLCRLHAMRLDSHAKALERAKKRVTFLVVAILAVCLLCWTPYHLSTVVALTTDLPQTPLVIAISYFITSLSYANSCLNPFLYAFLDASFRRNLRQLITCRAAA
Kind of experiment: GPR7 antagonist potency, late-stage follow-up, cell-based, fluorescence, dose response, set 5 (AID 588566). In kind it is functional.

In experiment [20] the target is Melanin-concentrating hormone receptor 1 (Homo sapiens, UniProt Q99705). The experiment in a line: Late-stage fluorescence-based counterscreen for antagonists of the G-protein coupled receptor 7 (GPR7): cell-based dose response assay to identify antagonists of the melanin-concentrating hormone receptor 1 (MCHR1) Set 5. In kind it is functional.
Melanin-concentrating hormone receptor 1, sequence (Q99705 whole entry): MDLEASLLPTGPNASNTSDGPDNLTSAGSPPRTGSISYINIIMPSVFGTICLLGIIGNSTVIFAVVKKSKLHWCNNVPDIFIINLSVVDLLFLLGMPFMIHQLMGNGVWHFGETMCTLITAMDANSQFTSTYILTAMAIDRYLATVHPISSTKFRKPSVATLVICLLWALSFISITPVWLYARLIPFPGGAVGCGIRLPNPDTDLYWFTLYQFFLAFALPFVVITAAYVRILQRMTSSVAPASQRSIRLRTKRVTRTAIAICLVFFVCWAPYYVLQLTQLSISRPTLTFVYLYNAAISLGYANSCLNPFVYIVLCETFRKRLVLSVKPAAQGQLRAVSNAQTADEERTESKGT
The subject of experiment [21] is Streptococcus. Kind of experiment: Group A Streptococcus viability loss, dose response, counter-screen for streptokinase expression inhibitor project, luminescence, BacTiterGlo (AID 1915).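 Further: potency for reduction of bacterial viability or growth.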 In kind it is functional, organism-based.
Experiment [22] has as its target T2, Small ubiquitin-related modifier 1 (Homo sapiens, UniProt P63165). The experiment in a line: inhibitors of SUMO1 peptide binding, dose response, biochemical, fluorescence polarization, uHTS hits (AID 624382). In kind it is functional. Conditions: read-out: IC50_Mean. (In fluorescence polarisation assays a small probe gives low polarisation when free and higher when bound to something large.)

Experiment [23] addresses T3, Streptokinase A (Streptococcus pyogenes serotype M1, UniProt P10520).
T3 sequence (P10520 whole entry): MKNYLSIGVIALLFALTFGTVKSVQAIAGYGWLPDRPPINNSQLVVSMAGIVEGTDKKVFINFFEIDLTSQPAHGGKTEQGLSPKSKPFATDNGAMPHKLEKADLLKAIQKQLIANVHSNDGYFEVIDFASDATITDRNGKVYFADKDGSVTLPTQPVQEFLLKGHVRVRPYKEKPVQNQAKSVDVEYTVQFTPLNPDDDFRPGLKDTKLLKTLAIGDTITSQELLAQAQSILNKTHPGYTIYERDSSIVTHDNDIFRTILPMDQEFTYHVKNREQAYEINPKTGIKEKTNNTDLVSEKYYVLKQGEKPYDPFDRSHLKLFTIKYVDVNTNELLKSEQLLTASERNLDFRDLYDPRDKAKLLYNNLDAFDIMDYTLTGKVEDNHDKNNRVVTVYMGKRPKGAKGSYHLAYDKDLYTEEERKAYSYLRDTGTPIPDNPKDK
The experiment in a line: S. pyogenes streptokinase expression inhibitors, potency, dose response, plasminogen activation absorbance, OD405 (AID 1914).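 Further: secreted streptokinase activity via plasminogen activation per viability signal from cell pellet.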 In kind it is functional, Streptococcus pyogenes M1 GAS.

The target in experiment [24] is 72 kDa type IV collagenase (Homo sapiens, UniProt P08253). Kind of experiment: Dose Response validation of uHTS RPN11 inhibitor hits using a MMP-2 Fluorescence assay. In kind it is functional.
72 kDa type IV collagenase, sequence (P08253 whole entry): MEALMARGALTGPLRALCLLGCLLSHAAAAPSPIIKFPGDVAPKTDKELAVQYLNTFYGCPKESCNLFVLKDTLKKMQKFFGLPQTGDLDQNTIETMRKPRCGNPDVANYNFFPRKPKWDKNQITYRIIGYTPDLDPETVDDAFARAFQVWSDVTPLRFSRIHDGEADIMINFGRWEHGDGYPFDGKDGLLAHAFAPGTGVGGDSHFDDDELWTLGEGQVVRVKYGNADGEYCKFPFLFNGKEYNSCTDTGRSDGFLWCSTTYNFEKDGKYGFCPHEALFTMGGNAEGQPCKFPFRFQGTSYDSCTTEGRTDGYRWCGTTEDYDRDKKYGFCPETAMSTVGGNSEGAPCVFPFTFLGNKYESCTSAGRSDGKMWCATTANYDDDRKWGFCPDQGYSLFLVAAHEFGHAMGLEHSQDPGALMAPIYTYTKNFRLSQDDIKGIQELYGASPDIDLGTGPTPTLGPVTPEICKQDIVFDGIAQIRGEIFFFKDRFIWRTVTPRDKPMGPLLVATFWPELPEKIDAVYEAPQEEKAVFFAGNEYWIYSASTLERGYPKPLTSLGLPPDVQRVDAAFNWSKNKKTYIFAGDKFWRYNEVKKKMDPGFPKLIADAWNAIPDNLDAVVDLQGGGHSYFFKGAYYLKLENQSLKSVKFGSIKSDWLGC
Experiment [25] has as its target T4, SUMO-activating enzyme (Homo sapiens, UniProt Q9UBT2). Kind of experiment: inhibitors of in vitro SUMOylation cascade, primary screen, biochemical, HTRF, uHTS (AID 2006). In kind it is protein-complex assay. For orientation: TR-FRET usually uses a lanthanide donor and a delayed reading to cut background.
The subject of experiment [26] is Streptococcus sp. 'group A'. The experiment in a line: growth inhibition of control SK(-) GAS strain, dose response, counter-screen for streptokinase expression inhibitor project, luminescence, kanamycin, BacTiterGlo, confirmation (AID 1900). In kind it is functional, organism-based.
The target in experiment [27] is T4, SUMO-activating enzyme. The experiment in a line: SUMOylation inhibitor hit validation, confirmation, SUMOylation inhibitor project, biochemical, AlphaScreen (AID 2018). In kind it is functional.
For experiment [28], the target named is 26S proteasome non-ATPase regulatory subunit 14 (Homo sapiens, UniProt O00487). The experiment in a line: inhibition of proteasome subunit RPN11 – biochemical, fluorescence polarization, uHTS hits, confirmation (AID 602368). In kind it is functional.
26S proteasome non-ATPase regulatory subunit 14, sequence (O00487 whole entry): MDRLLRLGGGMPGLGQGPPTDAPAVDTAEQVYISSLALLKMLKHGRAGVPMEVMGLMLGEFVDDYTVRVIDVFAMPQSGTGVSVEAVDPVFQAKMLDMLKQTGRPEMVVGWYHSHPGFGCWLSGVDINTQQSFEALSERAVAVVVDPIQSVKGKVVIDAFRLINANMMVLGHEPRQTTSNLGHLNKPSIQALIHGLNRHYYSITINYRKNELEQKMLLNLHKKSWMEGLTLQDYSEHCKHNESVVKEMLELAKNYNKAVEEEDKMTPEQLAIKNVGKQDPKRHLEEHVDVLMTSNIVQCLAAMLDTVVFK
Experiment [29] deals with T2, Small ubiquitin-related modifier 1. Kind of experiment: inhibitors of SUMO1 partner interactions, dose response, biochemical, FRET (AID 624383). In kind it is functional. The conditions noted are these: read-out: IC50_Mean.
Experiment [30] concerns the target Prothrombin (Bos taurus, UniProt P00735). The experiment in a line: thrombin inhibition, dose response, biochemical, fluorescence polarization, uHTS hits (AID 602369). In kind it is functional.
Experiment [31] has as its target T5, DNA dC->dU-editing enzyme APOBEC-3A (Homo sapiens, UniProt P31941). The experiment in a line: SAR analysis of small molecule inhibitors of APOBEC3A DNA Deaminase via a fluorescence-based single-stranded DNA deaminase assay. Conditions: read-out: IC50_Mean. In kind it is functional.
For experiment [32], the target named is T6, DNA dC->dU-editing enzyme APOBEC-3G (Homo sapiens, UniProt Q9HC16). Kind of experiment: APOBEC3G deaminase inhibitors, SAR follow-up, biochemical, fluorescence, single-stranded DNA substrate (AID 602136). In kind it is functional. Conditions: read-out: IC50_Mean.
T6 sequence (Q9HC16 whole entry): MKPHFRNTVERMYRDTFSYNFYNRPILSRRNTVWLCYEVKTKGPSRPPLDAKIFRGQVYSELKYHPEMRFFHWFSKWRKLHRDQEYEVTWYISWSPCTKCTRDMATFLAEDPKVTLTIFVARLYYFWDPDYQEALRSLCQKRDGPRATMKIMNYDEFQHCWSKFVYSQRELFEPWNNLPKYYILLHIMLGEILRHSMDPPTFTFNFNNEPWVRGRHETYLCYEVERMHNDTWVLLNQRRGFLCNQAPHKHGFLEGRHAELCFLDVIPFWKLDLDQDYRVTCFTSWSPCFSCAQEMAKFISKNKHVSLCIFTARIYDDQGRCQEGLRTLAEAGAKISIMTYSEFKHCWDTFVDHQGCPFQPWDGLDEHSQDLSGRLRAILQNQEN
Experiment [33] addresses T5, DNA dC->dU-editing enzyme APOBEC-3A. Kind of experiment: Dose Response confirmation of small molecule APOBEC3A DNA Deaminase Inhibitors via a fluorescence-based single-stranded DNA deaminase assay. [Related pubchem assays (depositor defined):AID493011, AID493024]. In kind it is functional.
In experiment [34] the target is T6, DNA dC->dU-editing enzyme APOBEC-3G. In kind it is functional.
For experiment [35] the target is unchanged. Kind of experiment: SAR analysis of small molecule inhibitors of APOBEC3G DNA Deaminase via a fluorescence-based single-stranded DNA deaminase assay - Set 2. The conditions noted are these: read-out: IC50_Mean. In kind it is functional.
Experiment [36] concerns the target T5, DNA dC->dU-editing enzyme APOBEC-3A. Kind of experiment: SAR analysis of small molecule inhibitors of APOBEC3A DNA Deaminase via a fluorescence-based single-stranded DNA deaminase assay - Set 2. In kind it is functional. The conditions noted are these: read-out: IC50_Mean.

Activity calls are given as the source filed them.

T5 sequence (P31941 whole entry): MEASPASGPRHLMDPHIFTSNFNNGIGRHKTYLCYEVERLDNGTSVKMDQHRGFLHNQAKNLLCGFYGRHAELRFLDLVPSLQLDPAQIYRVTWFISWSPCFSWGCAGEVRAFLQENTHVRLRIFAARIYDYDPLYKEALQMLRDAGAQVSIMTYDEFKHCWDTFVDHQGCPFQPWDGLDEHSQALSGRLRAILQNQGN
T4 sequence (Q9UBE0 whole entry): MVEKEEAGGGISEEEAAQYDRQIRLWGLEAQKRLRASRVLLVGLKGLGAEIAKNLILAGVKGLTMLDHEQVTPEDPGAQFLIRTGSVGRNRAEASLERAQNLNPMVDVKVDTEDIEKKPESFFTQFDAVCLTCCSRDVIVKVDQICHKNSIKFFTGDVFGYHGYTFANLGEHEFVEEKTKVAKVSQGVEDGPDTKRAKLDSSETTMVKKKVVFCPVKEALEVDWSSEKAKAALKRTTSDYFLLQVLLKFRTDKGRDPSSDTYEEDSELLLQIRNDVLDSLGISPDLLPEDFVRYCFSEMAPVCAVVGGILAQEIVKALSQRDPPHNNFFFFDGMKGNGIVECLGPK
T4 sequence (Q9UBT2 whole entry): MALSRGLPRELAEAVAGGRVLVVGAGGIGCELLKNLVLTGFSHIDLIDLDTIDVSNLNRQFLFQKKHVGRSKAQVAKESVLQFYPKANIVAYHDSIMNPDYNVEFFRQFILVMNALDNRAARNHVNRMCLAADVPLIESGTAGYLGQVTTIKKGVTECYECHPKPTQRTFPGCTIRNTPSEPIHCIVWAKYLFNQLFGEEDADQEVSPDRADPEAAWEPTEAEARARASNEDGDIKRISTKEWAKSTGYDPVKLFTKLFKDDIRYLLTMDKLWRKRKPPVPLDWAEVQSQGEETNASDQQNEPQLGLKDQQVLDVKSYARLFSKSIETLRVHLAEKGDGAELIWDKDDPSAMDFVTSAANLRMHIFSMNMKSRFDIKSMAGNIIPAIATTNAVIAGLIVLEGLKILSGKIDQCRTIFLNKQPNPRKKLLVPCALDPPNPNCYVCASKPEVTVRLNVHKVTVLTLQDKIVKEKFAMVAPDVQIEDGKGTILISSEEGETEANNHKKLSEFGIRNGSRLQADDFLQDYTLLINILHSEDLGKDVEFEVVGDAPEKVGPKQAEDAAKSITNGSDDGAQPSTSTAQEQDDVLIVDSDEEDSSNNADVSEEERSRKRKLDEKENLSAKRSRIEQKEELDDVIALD
T2 sequence (P63165 whole entry): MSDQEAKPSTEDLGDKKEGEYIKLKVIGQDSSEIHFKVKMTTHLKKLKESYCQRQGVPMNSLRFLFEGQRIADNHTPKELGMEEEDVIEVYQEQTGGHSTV
Mitogen-activated protein kinase 8, sequence (P45983 whole entry): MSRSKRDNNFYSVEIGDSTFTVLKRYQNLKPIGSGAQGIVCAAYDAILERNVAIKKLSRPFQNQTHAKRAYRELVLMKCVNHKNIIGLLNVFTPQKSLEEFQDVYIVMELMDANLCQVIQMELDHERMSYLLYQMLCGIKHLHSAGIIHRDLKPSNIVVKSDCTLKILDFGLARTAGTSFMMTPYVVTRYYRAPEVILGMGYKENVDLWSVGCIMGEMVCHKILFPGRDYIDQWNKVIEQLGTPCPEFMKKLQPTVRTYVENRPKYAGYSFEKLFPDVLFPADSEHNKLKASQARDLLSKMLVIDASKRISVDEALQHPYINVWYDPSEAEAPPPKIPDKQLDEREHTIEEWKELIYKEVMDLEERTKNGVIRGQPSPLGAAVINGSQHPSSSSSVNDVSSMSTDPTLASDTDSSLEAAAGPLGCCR

For `O=c1[nH]ccc2cnc(-c3ccccc3)n12`, the Ki is 79.4 µM (active) in experiment [1], 63.1 µM (active) in experiment [2], 39.8 µM (active) in [3] and 25.1 µM (active) in experiment [4].

`COc1ccc(-n2nnnc2S(=O)(=O)CC(=O)N2CCCCC2)cc1`: the half-maximal activity concentration (AC50) in experiment [5] was 3.45 µM (active); in [6], 16.8 µM (active); in [9], 5.44 µM (active); in experiment [10], 8.89 µM (active); in experiment [11], 7.63 µM (active); in experiment [15] it was 13 µM (active). The half-maximal activity concentration (AC50) in [16] is 7.53 µM (active); in experiment [18] it was 13.6 µM (active). Moreover, the IC50 was > 64.5 µM (inactive) in [7], > 80 µM (inactive) in experiment [12] and > 64.5 µM (inactive) in experiment [14]. For the same compound, the EC50 is 10.6 µM (active) in experiment [8] and 10.9 µM (active) in [13]. For the same compound, in [17], the CC50 was 11.3 µM (active).

With `Cc1cccc(C(C#N)c2c(Cl)cnn(Cc3cccc4ccccc34)c2=O)c1` (stereo unspecified), the IC50 was 0.379 µM (active) in experiment [19] and 18.8 µM (inactive) in experiment [20].

Turning to `Sc1nnc(-c2cc(-c3ccccc3)[nH]n2)n1/N=C/c1ccc(Br)s1`, the EC50 in experiment [21] was > 150 µM (not active); in experiment [23], > 150 µM (not active); in [26], 14.6 µM (active). Also, the IC50 is > 66.6 µM (inactive) in experiment [22]; > 100 µM (inactive) in experiment [24]; 10.3 µM (active) in experiment [25]; 6.99 µM (active) in experiment [27]; 14.5 µM (active) in [28]; 7.25 µM (active) in experiment [29]. In experiment [30], the IC50 is 32.9 µM (active).

With `C[n+]1cccc(C(=O)Nc2ccccc2)c1`, the IC50 in experiment [31] was 12.8 µM (inactive); in [32], 5.96 µM (active); in experiment [33] it was 2.75 µM (active); in experiment [34] it was 6.95 µM (active); in [35] it was 1.1 µM (active); in [36], 28.6 µM (inactive).
